According to ChEMBL document CHEMBL1144618, “Convenient synthesis and in vitro pharmacological activity of 2-thioanalogs of salvinorins A and B” (Bioorg Med Chem Lett, 2007):

Experiments:
[1] = target: Kappa-type opioid receptor (Homo sapiens, UniProt P41145); experiment: Activity at human kappa opioid receptor expressed in HEK293 cells as intracellular calcium mobilization; assay type: functional, cell-based
[2] = target: Kappa-type opioid receptor (Rattus norvegicus, UniProt P34975); experiment: Displacement of [3H]U-69593 from rat cloned KOR
Chain of Kappa-type opioid receptor (Rattus norvegicus, UniProt P34975) (P34975 whole entry): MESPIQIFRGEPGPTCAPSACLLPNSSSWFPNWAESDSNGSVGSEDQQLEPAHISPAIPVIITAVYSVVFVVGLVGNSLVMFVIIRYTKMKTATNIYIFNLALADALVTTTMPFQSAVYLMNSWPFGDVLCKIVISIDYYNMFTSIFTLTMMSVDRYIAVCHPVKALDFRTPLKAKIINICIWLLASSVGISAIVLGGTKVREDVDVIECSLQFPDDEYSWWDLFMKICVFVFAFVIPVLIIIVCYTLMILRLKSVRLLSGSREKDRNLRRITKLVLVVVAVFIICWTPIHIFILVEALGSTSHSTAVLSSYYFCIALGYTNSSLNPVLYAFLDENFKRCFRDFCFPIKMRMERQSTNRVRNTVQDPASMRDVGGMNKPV

Chain of Kappa-type opioid receptor (Homo sapiens, UniProt P41145) (P41145 whole entry): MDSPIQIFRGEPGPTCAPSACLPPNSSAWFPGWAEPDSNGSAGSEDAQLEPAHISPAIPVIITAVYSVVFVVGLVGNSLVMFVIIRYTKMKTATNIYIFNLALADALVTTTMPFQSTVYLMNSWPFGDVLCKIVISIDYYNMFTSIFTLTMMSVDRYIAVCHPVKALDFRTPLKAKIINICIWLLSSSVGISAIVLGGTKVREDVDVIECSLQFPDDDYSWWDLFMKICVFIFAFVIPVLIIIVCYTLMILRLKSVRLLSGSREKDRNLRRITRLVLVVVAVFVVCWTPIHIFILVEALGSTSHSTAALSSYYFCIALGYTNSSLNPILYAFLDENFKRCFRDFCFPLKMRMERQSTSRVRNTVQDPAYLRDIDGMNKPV

SMILES	EC50 [1]	Emax [1]	Ki [2]
COC(=O)[C@@H]1C[C@H](S)C(=O)[C@H]2[C@@]1(C)CC[C@H]1C(=O)O[C@H](c3ccoc3)C[C@]21C [2-THIOSALVINORIN B]	287 nM	89%	54.5 nM
COC(=O)[C@@H]1C[C@@H](SC(C)=O)C(=O)[C@H]2[C@@]1(C)CC[C@H]1C(=O)O[C@H](c3ccoc3)C[C@]21C [2-EPI-2-THIOSALVINORIN A]	123 nM	106%	151 nM
COC(=O)[C@@H]1C[C@@H](S)C(=O)[C@H]2[C@@]1(C)CC[C@H]1C(=O)O[C@H](c3ccoc3)C[C@]21C [2-EPI-2-THIOSALVINORIN B]	> 2000 nM	71%	546 nM
